The results in this text go back to US12428447B2, “Peptide-based non-proteinaceous cargo delivery” (priority 2019, dated 2025).

In experiment [1] the test system is HedgeHog signalling pathway. Put plainly: Hedgehog pathway inhibitor delivery to Gli-luciferase reporter NIH3T3 cells (luminescence). Format: cell-based, Mouse. Conditions: for Mean luminescence intensity: inhibitor 100 μM, 90 seconds, mShh-stimulated reporter cells; for cellular luminescence intensity in the presence of FSD250D as compared to in the absence of FSD250D: +mShh, inhibitor transduced by FSD250D. The protocol: Stock solutions of cargoes were prepared as follows: Gant61 stock (20 mM in DMSO); HPI4 stock (40 mM in DMSO); Itraconazole stock (4.8 mM (4 mg/mL) in DMSO); Arsenic trioxide (ATO) stock (40 mM in H2O). Peptide shuttle agent (5 μM) and Hedgehog pathway inhibitor (100 μM) were mixed and volume was completed to 50 μL with PBS.
Hedgehog signaling pathway Gli Reporter NIH 3T3 cells were cultured in DMEM containing 10% calf serum. Cells were trypsinized, centrifuged and resuspended at 10 million cells/mL in PBS. 50 μL of cells (500 000 cells/well) were distributed in a round bottom non-treated 96-well plate. Resuspended cells were mixed with a delivery mix containing the peptide shuttle agent (5 μM) and Hedgehog pathway inhibitor (100 μM). Cells were incubated 90 seconds with the delivery mix at room temperature, 200 μL of DMEM containing 10% calf serum (200 μL) was added in each well, and cells were centrifuged (400 g, 4 min.) and washed with 200 μL of PBS. Cells were then resuspended in 200 μL of DMEM and then transferred to a well of a 6-well plate containing 1 mL of DMEM containing 10% calf serum and incubated at 37° C. for 2 hours. The media was gently removed and 1 ml of either control media (Opti-MEM™) or activating media (Opti-MEM with 5 μg/mL mShh) was added to each well. Cells were incubated at 37° C. for 24-30 hours.
For analyses, cells were trypsinized and resuspended in each well with 200 μL of Opti-MEM™, and then split equally to two wells of a round bottom 96-well plate. Viability was assessed using flow cytometry analysis and ONE-Step Luciferase assay was used to measure luminescence following manufacturer's instructions.
Briefly, the NIH3T3 Gli-luciferase reporter cell line is designed to monitor the activity of the HedgeHog signaling pathway and contains the firefly luciferase gene under the control of Gli responsive elements stably integrated into NIH3T3 cells. As shown in FIG. 3 and Table 1, exposure of the NIH3T3 Gli-luciferase reporter cells to recombinant mouse Sonic HedgeHog protein as a positive control (“Ctrl+mShh”) results in an increase in luminescence intensity that is not observed in the negative control cells which were not exposed to mShh (“Ctrl−mShh”).
For orientation: In a reporter assay the amount or activity of a reporter protein is the signal.

In the next experiment the test system is HedgeHog pathway. Put plainly: Hedgehog pathway inhibitor transduction in vivo, depilated mouse hair regrowth. Further details: species or system C57BL6 mice. The note with it: 100 μM inhibitor, topical on depilated skin, in the presence of FSD250D vs in its absence, 10 days post-treatment.
For the next experiment, the target named is T1, sodium channel Nav1.7 (Homo sapiens, UniProt Q15858).
T1 construct: expressed in transfected cells
Put plainly: QX-314 delivery, whole-cell patch-clamp of HEK293 cells stably expressing Nav1.7. Format: cell-based. The protocol: Cell culture. HEK293 cells stably expressing Nav1.7 were grown in Dulbecco's minimal essential medium (DMEM, Gibco BRL Life Technologies) supplemented with fetal bovine serum (FBS, 10%), L-glutamine (2 mM), penicillin (100 U/mL), streptomycin ([…]). The cells were incubated at 37° C. in a 5% CO2 humidified atmosphere.
(§1) Delivery. Cells were seeded 24 hours prior to the experiment in 24-well plate. Cells were washed twice with PBS. A solution containing 1 mM of QX-314, 5 μM of FSD194 and 15 μM of GFP-NLS protein was applied to cells for 90 seconds and removed by aspiration. Control was performed using 5 μM of FSD194 or of 2.5 mM QX-314, in presence of GFP-NLS. Cells were washed with 800 μL of DMEM containing 10% FBS and transferred in the recording solution to perform the electrophysiology. GFP-positive cells were determined by microscopy and then selected for patch-clamp analysis.
Electrophysiology. Frequency protocol with QX-314 was recorded within 30 s after the whole-cell configuration was formed. Frequency protocol consists of a pulse of 10 ms at −20 mV from a holding potential of −140 mV at 10 Hz. Whole-cell Na+ currents in HEK293 cells were recorded at room temperature using an Axopatch 200B with the whole-cell configuration of the patch-clamp technique (Molecular Devices). pClamp v10.0 was used for the pulse stimulations and recordings (Molecular Devices). Currents were filtered at 5 kHz, digitized at 100 kHz using a Digidata 1550 AD converter (Molecular devices), and stored on a computer for subsequent analyses. Series resistance was compensated by 70-80%. When needed, linear leak current artifacts were removed using on-line leak subtraction. Fire-polished low-resistance electrodes (2MS2) were pulled from 8161 glass (Corning).
Recording Solutions. Bath solution: 35 mM NaCl, 115 mM NMDG, 2 mM KCl, 1.5 mM CaCl2, 1.0 mM MgCl2, 10 mM glucose, 10 mM HEPES. The pH was adjusted to pH 7.3 with 1 M NaOH. Pipette solution: 35 mM NaCl, 105 mM CsF, 10 mM EGTA, and 10 mM HEPES. The pH was adjusted to pH 7.4 with 1 M CsOH.
(Patch clamp records ionic current or voltage across a cell membrane.)

A further experiment concerns HeLa cells. As to the kind of experiment: Propidium iodide (PI) transduction in HeLa cells, flow cytometry. The note with it: for delivery / transduction of PI: shuttle or control peptide 10 μM, PI 10 μg/mL, 1 minute, 2 hours after delivery. Format: cell-based, Human. The protocol: HeLa cells were plated (20 000 cells/well) in a 96 well-dish the day prior the experiment. Each delivery mix comprising a synthetic peptide shuttle agent (10 μM) and the propidium iodide (PI) (10 μg/mL) or the GFP-NLS (10 μM) were prepared and completed to 50 μL with phosphate-buffered saline (PBS). Cells were washed once with PBS and the Shuttle/PI or Shuttle/GFP-NLS added on cells for one minute. Then 100 μL DMEM containing 10% FBS was added to the mix and removed. Cells were washed once with PBS and incubated in DMEM containing 10% FBS. Cells were analyzed after 2-hour incubation by flow cytometry. For the condition “FS then PI”, only the synthetic peptide shuttle agent (10 μM) was added on HeLa cells for 1 minute and one hour later PI (10 μg/mL) was added for one minute following the same washing step. Cells were analyzed one hour after PI or GFP-NLS treatment.
HeLa cells were cultured as described in Example 1.3 and subjected to the PI transduction protocol as described in Example 1.4, with the proteinaceous cargo GFP-NLS being transduced separately as a control in some experiments. Results were acquired by flow cytometry two hours after delivery and expressed as percentages of fluorescent cells (% PI+ cells or % GFP+ cells), as shown in FIGS. 1A-1D and as summarized in the table shown in FIG. 2.
To evaluate the suitability of PI as a “surrogate” cargo for novel shuttle agents, a proprietary library of over 300 candidate peptide shuttle agents was screened in parallel for both PI and GFP-NLS transduction activity in HeLa cells using flow cytometry as generally described in Example 1.4. Aside from the concentrations of the cargoes (i.e., 10 μg/mL for PI vs 10 μM for GFP-NLS), the transduction protocols were otherwise the same.
Due to the large number of peptides screened, negative controls were performed in parallel for each experimental batch and included a “no treatment” (NT) control in which the cells were not exposed to shuttle peptide or cargo, as well as a “cargo alone” control in which cells were exposed to the cargo in the absence of shuttle agent. Results are shown in FIGS. 6 and 7, in which “transduction efficiency” refers to the percentage of all viable cells that are positive for the cargo (PI or GFP-NLS). “Mean Delivery score” provides a further indication of the total amount of cargo that was delivered per cell, amongst all cargo-positive cells. Mean PI or GFP-NLS delivery score was calculated by multiplying the mean fluorescence intensity (of at least duplicate samples) measured for the viable PI+ or GFP+ cells by the mean percentage of viable PI+ or GFP+ cells, divided by 100,000 for GFP delivery or by 10,000 for PI delivery. […]
A general note: In flow cytometry, cells or beads pass a laser one at a time.

Another experiment deals with HEK293 cells. Put plainly: GFP-NLS co-transduction in HEK293 cells, microscopy. In kind it is cell-based, Human. Conditions: 5 μM FSD194+15 μM GFP-NLS, with or without QX-314. As to the method: as §1

Bridges are numbered along the chain shown (N, C = ends). Where no end group is shown, it is not given here. [ ]: non-standard residue; d: D form.

T1 sequence (Q15858 whole entry): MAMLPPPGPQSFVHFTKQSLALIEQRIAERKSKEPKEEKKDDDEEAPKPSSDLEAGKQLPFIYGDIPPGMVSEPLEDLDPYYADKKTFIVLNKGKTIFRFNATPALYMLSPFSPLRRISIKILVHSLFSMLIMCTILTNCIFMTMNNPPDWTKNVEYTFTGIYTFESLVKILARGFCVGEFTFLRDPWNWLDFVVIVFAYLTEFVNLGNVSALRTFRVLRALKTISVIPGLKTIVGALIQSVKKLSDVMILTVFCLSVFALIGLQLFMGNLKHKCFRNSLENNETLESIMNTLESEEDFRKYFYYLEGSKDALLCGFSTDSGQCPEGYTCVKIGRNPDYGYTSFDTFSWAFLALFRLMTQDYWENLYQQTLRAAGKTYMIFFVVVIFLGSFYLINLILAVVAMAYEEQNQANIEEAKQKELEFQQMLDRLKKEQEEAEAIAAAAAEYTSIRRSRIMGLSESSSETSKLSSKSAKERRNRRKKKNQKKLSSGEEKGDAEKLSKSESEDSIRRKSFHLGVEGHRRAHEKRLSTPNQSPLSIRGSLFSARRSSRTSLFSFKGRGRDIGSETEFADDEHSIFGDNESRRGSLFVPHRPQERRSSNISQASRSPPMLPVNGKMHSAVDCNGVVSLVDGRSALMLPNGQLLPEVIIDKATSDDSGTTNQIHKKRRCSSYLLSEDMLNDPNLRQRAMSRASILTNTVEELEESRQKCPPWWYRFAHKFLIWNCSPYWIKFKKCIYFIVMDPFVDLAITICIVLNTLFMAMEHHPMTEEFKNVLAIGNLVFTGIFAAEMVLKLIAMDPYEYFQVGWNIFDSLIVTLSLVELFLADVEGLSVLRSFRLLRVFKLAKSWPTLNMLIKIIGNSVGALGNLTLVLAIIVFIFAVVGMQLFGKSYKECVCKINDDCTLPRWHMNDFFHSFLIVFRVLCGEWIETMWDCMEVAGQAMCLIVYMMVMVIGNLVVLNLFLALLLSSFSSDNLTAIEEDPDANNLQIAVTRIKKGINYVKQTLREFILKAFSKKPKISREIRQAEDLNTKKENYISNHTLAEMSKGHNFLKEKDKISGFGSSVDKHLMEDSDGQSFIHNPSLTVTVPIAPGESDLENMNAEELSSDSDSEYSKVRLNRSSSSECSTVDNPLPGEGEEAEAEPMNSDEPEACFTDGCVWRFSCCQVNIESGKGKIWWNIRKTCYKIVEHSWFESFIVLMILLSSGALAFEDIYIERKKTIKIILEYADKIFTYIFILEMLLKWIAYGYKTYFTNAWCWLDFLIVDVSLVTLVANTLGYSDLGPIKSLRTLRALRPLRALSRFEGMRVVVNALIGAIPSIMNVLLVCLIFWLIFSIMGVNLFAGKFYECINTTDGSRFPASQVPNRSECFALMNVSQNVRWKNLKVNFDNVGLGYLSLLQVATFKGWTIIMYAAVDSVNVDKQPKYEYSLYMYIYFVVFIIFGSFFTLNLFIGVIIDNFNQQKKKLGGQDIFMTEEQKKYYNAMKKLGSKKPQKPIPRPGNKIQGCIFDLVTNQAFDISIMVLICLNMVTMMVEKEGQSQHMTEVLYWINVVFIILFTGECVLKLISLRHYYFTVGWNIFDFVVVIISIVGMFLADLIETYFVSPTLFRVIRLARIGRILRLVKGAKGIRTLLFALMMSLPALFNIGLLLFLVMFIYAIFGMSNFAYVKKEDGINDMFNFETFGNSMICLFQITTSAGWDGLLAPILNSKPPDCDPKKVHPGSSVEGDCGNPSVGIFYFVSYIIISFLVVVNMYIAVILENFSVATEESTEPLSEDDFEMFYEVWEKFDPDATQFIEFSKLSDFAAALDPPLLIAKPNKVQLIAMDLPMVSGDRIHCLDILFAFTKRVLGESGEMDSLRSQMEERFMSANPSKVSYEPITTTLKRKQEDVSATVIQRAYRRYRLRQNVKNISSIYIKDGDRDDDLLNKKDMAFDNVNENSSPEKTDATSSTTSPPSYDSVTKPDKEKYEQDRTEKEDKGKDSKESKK

With `CN(C)c1ccccc1CN1CCCN(Cc2ccccc2N(C)C)C1c1ccncc1` [Gant61], the figures for the Mean luminescence intensity in experiment [1] (+FSD250D (5 μM)) and in experiment [1] (−FSD250D) were 4216 and 6770, respectively. The “cellular luminescence intensity in the presence of FSD250D as compared to in the absence of FSD250D” value in experiment [1] is “significantly reduced cellular luminescence intensity”. Besides, in the experiment with HedgeHog pathway, the hair regrowth result is recorded as “delayed hair regrowth”.
As for `N#C/C(C(=O)c1ccc(Cl)cc1Cl)=C1\NC(=O)c2ccccc2N1` [HPI-4], the Mean luminescence intensity in experiment [1] (+FSD250D (5 μM)) was 1993; in experiment [1] (−FSD250D), 6370. Also, the “cellular luminescence intensity in the presence of FSD250D as compared to in the absence of FSD250D” value in experiment [1] is recorded as “significantly reduced cellular luminescence intensity”.
For `CCC(C)n1ncn(-c2ccc(N3CCN(c4ccc(OCC5COC(Cn6cncn6)(c6ccc(Cl)cc6Cl)O5)cc4)CC3)cc2)c1=O` (stereo not drawn) [Itraconazole], the Mean luminescence intensity in experiment [1] (+FSD250D (5 μM)) is reported as 1519; in experiment [1] (−FSD250D), 5612.
On to `CC[N+](CC)(CC)CC(=O)Nc1c(C)cccc1C.[Br-]` [QX-314, Lidocaine N-ethyl bromide], for which the “evoked whole-cell Na+ current amplitude” value is recorded as “Reduction of the current amplitude” at sodium channel Nav1.7 (1 mM QX-314+15 μM GFP-NLS+5 μM FSD194, 90 seconds, 10 ms pulse at 10 Hz) and “current amplitude reduction was not observed” on sodium channel Nav1.7 (2.5 mM QX-314+15 μM GFP-NLS, absence of FSD194).
Turning to Arsenic trioxide [ATO], the values for the Mean luminescence intensity in experiment [1] (+FSD250D (5 μM)) and in experiment [1] (−FSD250D) were 4686 and 5967, respectively. Also, the “cellular luminescence intensity in the presence of FSD250D as compared to in the absence of FSD250D” value in experiment [1] was “significantly reduced cellular luminescence intensity”.
For the compound “FSD174 Scramble: negative control peptide, same amino acid composition as FSD174, order changed (LGRSGRIKIGGWSALASRARQARGLKIWTQGRL; FSD174 Scramble)”, the “PI transduction efficiency relative to "cargo alone" negative control” value in the experiment on HeLa cells (negative control peptide, data not shown) is listed as “lower transduction efficiencies for PI”.
Take “FSD194: rationally-designed synthetic peptide shuttle agent (KWKLLKLWSRLLKLWGGSGGGSRRLKAKRAKA; FSD194)”: in the experiment with sodium channel Nav1.7 (15 μM GFP-NLS+5 μM FSD194, without QX-314), the “evoked whole-cell Na+ current amplitude” value is recorded as “current amplitude reduction was not observed”. The GFP-NLS-positive cells result with HEK293 cells is reported as “GFP-NLS-positive cells were identified”.
In the case of “FSD250D: same amino acid sequence as FSD250, except that all the amino acids are D-amino acids ([dK][dW][dK][dL][dL][dK][dL][dW][dS][dR][dL][dL][dK][dL][dW]GG[dS]GGG[dS][dA][dR][dA][dA][dR][dQ][dA][dR])”, the “effect of shuttle agent alone on luminescence intensity following mShh stimulation” value in experiment [1] (FSD250D together with mShh, no inhibitor, data not shown) is recorded as “had no effect on cellular luminescence intensity”.
As to “FSD268 Cyclic Amide: cyclic peptide possessing an amide bond between its C and N termini (KWKLLKLWSRLLKLWGGSGGGSQARAQARQAR; head-to-tail cyclic amide; FSD268 Cyclic Amide; (1)..(32) Cyclic peptide covalent link between K1 and R32)”, the “delivery / transduction of PI” value in the experiment with HeLa cells is reported as “increased the delivery of PI”.
With “FSD268 Cyclic Disulfide: cyclic peptide with a disulfide bridge between two flanking cysteines added in N and C terminal positions (CKWKLLKLWSRLLKLWGGSGGGSQARAQARQARC; disulfide 1-34)”, the “delivery / transduction of PI” value in the experiment with HeLa cells is recorded as “increased the delivery of PI”.
Still for that read-out and setting: next, “FSD268: rationally-designed synthetic peptide shuttle agent (KWKLLKLWSRLLKLWGGSGGGSQARAQARQAR; FSD268)”: “increased the delivery of PI”.
